# Laboratory results from patent US10081634B2, “Heterocyclic compound” (Daewoong Pharmaceutical Co., Ltd., priority 2014, dated 2018).
# Where a name gives a salt, the structure may show the parent alone.
# Target: T1, PRS (prolyl-tRNA synthetase) (Homo sapiens, UniProt P07814)
# T1 construct: the portion corresponding to PRS in cDNA of EPRS was subcloned; made in house
# T1 sequence (P07814 1007-1512 limits assumed): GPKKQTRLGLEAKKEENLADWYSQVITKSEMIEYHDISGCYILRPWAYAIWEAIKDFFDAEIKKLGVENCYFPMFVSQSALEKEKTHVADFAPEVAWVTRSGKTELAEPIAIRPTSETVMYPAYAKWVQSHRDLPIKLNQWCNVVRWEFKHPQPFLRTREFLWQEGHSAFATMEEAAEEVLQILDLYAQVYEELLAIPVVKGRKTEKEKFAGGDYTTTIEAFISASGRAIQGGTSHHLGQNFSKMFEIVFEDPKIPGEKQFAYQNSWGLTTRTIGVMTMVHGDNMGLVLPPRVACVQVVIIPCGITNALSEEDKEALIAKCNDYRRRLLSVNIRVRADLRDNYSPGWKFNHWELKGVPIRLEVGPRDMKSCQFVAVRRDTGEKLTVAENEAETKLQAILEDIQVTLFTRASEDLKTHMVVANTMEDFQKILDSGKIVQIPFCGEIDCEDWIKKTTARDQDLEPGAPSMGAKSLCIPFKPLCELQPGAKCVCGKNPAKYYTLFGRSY
# Test: In vitro PRS enzyme activity inhibition experiment ([3H]proline, liquid scintillation)
# Assay type: biochemical
# Conditions: purified PRS protein subcloned from EPRS cDNA; 37° C., 5 to 10 minutes; read-out: PRS IC50
# Method: In order to confirm the biological activities of the compounds prepared in Examples, % inhibition or IC50 values of PRS enzyme ([…]) activities were calculated.
# Specifically, the portion corresponding to PRS in cDNA of EPRS was subcloned, and the obtained high-purity PRS protein was purified and used in the experiment. The compounds (1 μM) prepared in Examples were added into the reaction buffer (20 mM KPO4 (pH 7.4), 6 mM MgAc, 5 mM ATP, […] tRNA, 0.5 mM DTT, 20 mCi[^3H]proline (1 mCi/mL)) and allowed to react at 37° C. for 5 to 10 minutes. The reaction was terminated with 3M paper that was previously dried by addition of 5% TCA. The radioactivity was measured using a liquid scintillation counter.
# IC50 values of the respective compounds were calculated and analyzed using Microsoft Excel or Sigma Plot 8.0. In Table 1, the results are divided into A, B and C according to the range of IC50. The case where the derived IC50 is 100 nM or less is represented by “A”, the case where the IC50 is 100 to 500 nM is represented by “B”, and the case where the IC50 is 500 nM or higher is represented by “C”.
row,IC50,SMILES
1,> 500 nM,"C[C@@H](O)c1nc2ccccc2n1CC(=O)C[C@H]1NCCC[C@@H]1O [Example 54, 1-(2-((R)-1-hydroxyethyl)-1H-benzo[d]imidazol-1-yl)-3-((2R,3S)-3-hydroxypiperidin-2-yl)propan-2-one]"
2,> 500 nM,"Cc1c(Cl)ccc2c1ncn2CC(O)C[C@H]1NCCC[C@@H]1O (stereo partly drawn) [Example 76, (2R,3S)-2-(3-(5-chloro-4-methyl-1H-benzo[d]imidazol-1-yl)-2-hydroxypropyl)piperidin-3-ol]"
3,> 500 nM,"CO/N=C(/C[C@H]1NCCC[C@@H]1O)Cn1cnc2cc(Cl)c(Cl)cc21 [Example 67, 1-(5,6-dichloro-1H-benzo[d]imidazol-1-yl)-3-((2R,3S)-3-hydroxypiperidin-2-yl)propan-2-one O-methyl oxime]"
4,> 500 nM,"O/N=C(/C[C@H]1NCCC[C@@H]1O)Cn1cnc2ncc(Br)cc21 [Example 66, 1-(6-bromo-1H-imidazo[4,5-b]pyridin-1-yl)-3-((2R,3S)-3-hydroxypiperidin-2-yl)propan-2-one oxime]"
5,100 to 500 nM,"Cc1ccc2c(cnn2CC(=O)C[C@H]2NCCC[C@@H]2O)c1Br [Example 97, 1-(4-bromo-5-methyl-1H-indazol-1-yl)-3-((2R,3S)-3-hydroxypiperidin-2-yl)propan-2-one]"
6,100 to 500 nM,"O=C(C[C@H]1NCCC[C@@H]1O)Cn1ccc2cc(Cl)cnc21 [Example 91, 1-(5-chloro-1H-pyrrolo[2,3-b]pyridin-1-yl)-3-((2R,3S)-3-hydroxypiperidin-2-yl)propan-2-one]"
7,> 500 nM,"OC(C[C@H]1NCCC[C@@H]1O)Cn1cnc2c(F)c(Br)ccc21 (stereo partly drawn) [Example 74, (2R,3S)-2-(3-(5-bromo-4-fluoro-1H-benzo[d]imidazol-1-yl)-2-hydroxypropyl)piperidin-3-ol]"
8,> 500 nM,"Cc1nc2ncccc2n1CC(=O)C[C@H]1NCCC[C@@H]1O [Example 49, 1-((2R,3S)-3-hydroxypiperidin-2-yl)-3-(2-methyl-1H-imidazo[4,5-b]pyridin-1-yl)propan-2-one]"
9,> 500 nM,"OC(C[C@H]1NCCC[C@@H]1O)Cn1cnc2c(C(F)(F)F)c(Br)ccc21 (stereo partly drawn) [Example 72, (2R,3S)-2-(3-(5-bromo-4-(trifluoromethyl)-1H-benzo[d]imidazol-1-yl)-2-hydroxypropyl)piperidin-3-ol]"
10,> 500 nM,"O=C(C[C@H]1NCCC[C@@H]1O)Cn1ncc2cc(Cl)ccc21 [Example 96, 1-(5-chloro-1H-indazol-1-yl)-3-((2R,3S)-3-hydroxypiperidin-2-yl)propan-2-one]"
11,> 500 nM,"O=C(C[C@H]1NCCC[C@@H]1O)Cn1cnc2cc(C(=O)O)ncc21 [Example 43, 3-(3-((2R,3S)-3-hydroxypiperidin-2-yl)-2-oxopropyl)-3H-imidazo[4,5-c]pyridine-6-carboxylic acid hydrochloride salt]"
12,> 500 nM,"CNC(C[C@H]1NCCC[C@@H]1O)Cn1cnc2cc(Cl)c(Cl)cc21 (stereo partly drawn) [Example 86, (2R,3S)-2-(3-(5,6-dichloro-1H-benzo[d]imidazol-1-yl)-2-(methylamino)propyl)piperidin-3-ol]"
13,100 to 500 nM,"O=C(C[C@H]1NCCC[C@@H]1O)Cn1cnc2c1CCCC2 [Example 45, 1-((2R,3S)-3-hydroxypiperidin-2-yl)-3-(4,5,6,7-tetrahydro-1H-benzo[d]imidazol-1-yl)propan-2-one]"
14,> 500 nM,"O/N=C(/C[C@H]1NCCC[C@@H]1O)Cn1cnc2cc(Cl)c(Cl)cc21 [Example 64, 1-(5,6-dichloro-1H-benzo[d]imidazol-1-yl)-3-((2R,3S)-3-hydroxypiperidin-2-yl)propan-2-one oxime]"
15,> 500 nM,"O=C(C[C@H]1NCCC[C@@H]1O)Cn1c(CCO)nc2ccc(F)cc21 [Example 53, 1-(6-fluoro-2-(2-hydroxyethyl)-1H-benzo[d]imidazol-1-yl)-3-((2R,3S)-3-hydroxypiperidin-2-yl)propan-2-one]"
16,> 500 nM,"Cc1c(Br)ccc2c1ncn2CC(O)(C[C@H]1NCCC[C@@H]1O)C(F)(F)F (stereo partly drawn) [Example 85, (2R,3S)-2-(2-((5-bromo-4-methyl-1H-benzo[d]imidazol-1-yl)methyl)-3,3,3-trifluoro-2-hydroxypropyl)piperidin-3-ol]"
17,< 100 nM,"O=C(C[C@H]1NCCC[C@@H]1O)Cn1cnc2c(Cl)cc(Cl)nc21 [Example 41, 1-(5,7-dichloro-3H-imidazo[4,5-b]pyridin-3-yl)-3-((2R,3S)-3-hydroxypiperidin-2-yl)propan-2-one]"
18,> 500 nM,"C[C@H](O)c1nc2ccccc2n1CC(=O)C[C@H]1NCCC[C@@H]1O [Example 55, 1-(2-((S)-1-hydroxyethyl)-1H-benzo[d]imidazol-1-yl)-3-((2R,3S)-3-hydroxypiperidin-2-yl)propan-2-one]"
19,> 500 nM,"COCc1nc2cc(Cl)c(Cl)cc2n1CC(=O)C[C@H]1NCCC[C@@H]1O [Example 63, 1-(5,6-dichloro-2-(methoxymethyl)-1H-benzo[d]imidazol-1-yl)-3-((2R,3S)-3-hydroxypiperidin-2-yl)propan-2-one]"
20,> 500 nM,"O=C(C[C@H]1NCCC[C@@H]1O)Cn1ncc2cc(Cl)cnc21 [Example 98, 1-(5-chloro-1H-pyrazolo[3,4-b]pyridin-1-yl)-3-((2R,3S)-3-hydroxypiperidin-2-yl)propan-2-one]"
21,> 500 nM,"Cc1nc2c(F)c(F)ccc2n1CC(=O)C[C@H]1NCCC[C@@H]1O [Example 47, 1-(4,5-difluoro-2-methyl-1H-benzo[d]imidazol-1-yl)-3-((2R,3S)-3-hydroxypiperidin-2-yl)propan-2-one]"
22,> 500 nM,"O=C(C[C@H]1NCCC[C@@H]1O)Cn1cnc2nc(Br)ccc21 [Example 29, 1-(5-bromo-1H-imidazo[4,5-b]pyridin-1-yl)-3-((2R,3S)-3-hydroxypiperidin-2-yl)propan-2-one]"
23,> 500 nM,"Cc1c(Cl)cnc2c1ncn2CC(O)C[C@H]1NCCC[C@@H]1O (stereo partly drawn) [Example 77, (2R,3S)-2-(3-(6-chloro-7-methyl-3H-imidazo[4,5-b]pyridin-3-yl)-2-hydroxypropyl)piperidin-3-ol]"
24,100 to 500 nM,"O=C(C[C@H]1NCCC[C@@H]1O)Cn1cnc2cccnc21 [Example 34, 1-((2R,3S)-3-hydroxypiperidin-2-yl)-3-(3H-imidazo[4,5-b]pyridin-3-yl)propan-2-one]"
25,> 500 nM,"OC(C[C@H]1NCCC[C@@H]1O)Cn1cnc2c(Cl)c(Cl)ccc21 (stereo partly drawn) [Example 75, (2R,3S)-2-(3-(4,5-dichloro-1H-benzo[d]imidazol-1-yl)-2-hydroxypropyl)piperidin-3-ol]"
26,100 to 500 nM,"OC(C[C@H]1NCCC[C@@H]1O)Cn1cnc2c(Cl)c(Br)cnc21 (stereo partly drawn) [Example 79, (2R,3S)-2-(3-(6-bromo-7-chloro-3H-imidazo[4,5-b]pyridin-3-yl)-2-hydroxypropyl)piperidin-3-ol]"
27,> 500 nM,"OCc1nc2cc(Cl)c(Cl)cc2n1C/C(C[C@H]1NCCC[C@@H]1O)=N/O [Example 65, 1-(5,6-dichloro-2-(hydroxymethyl)-1H-benzo[d]imidazol-1-yl)-3-((2R,3S)-3-hydroxypiperidin-2-yl)propan-2-one oxime]"

row,SMILES,IC50
1,"O=C(C[C@H]1NCCC[C@@H]1O)Cn1cnc2ncc(Br)cc21 [Example 31, 1-(6-bromo-1H-imidazo[4,5-b]pyridin-1-yl)-3-((2R,3S)-3-hydroxypiperidin-2-yl)propan-2-one]",> 500 nM
